Molecules are shown by their SMILES.

A short description of data set [1]: Stability of VCE-004.8 during phytosomization (reflux in ethyl acetate). The settings on record: area %. In kind it is physicochemical. As for the experimental part:
FIG. 8 depicts a stability of VCE-004.8 during phytosomization, at reflux in ethyl acetate at different times (45 min, 6 hr and 24 hr).
A preliminary investigation of the compound stability gave indication that the active principle is stable in the process conditions, although an impurity peak not detected in the starting material and almost neglectable at […], increased after 6 hr (1.7% in area %) and grew after 24 hr (6.2% in area %), as shown in FIG. 8.

For data set [2], the system named is Experimental Autoimmune Encephalomyelitis (EAE) model. Put plainly: Experimental autoimmune encephalomyelitis model. The data set is classed as in vivo, C57BL/6 female mice. As for the experimental part:
EAE was induced in C57BL/6 female mice at 6-8 weeks of age by subcutaneous immunization with MOG35-55 (300 μg: peptide synthesis section, CBM, CSIC. Madrid, Spain) and 200 μg of Mycobacterium tuberculosis (H37Ra Difco, Franklin Lakes, N.J., USA) in a 1:1 mix with […]. On the same day and 2 days later, mice were injected intraperitoneally with 200 ng of pertussis toxin (Sigma) in 0.1 mL PBS. […] The mice were examined daily for clinical signs of EAE and disease scores were measured as follows: 0, no disease; 1, limb tail; 2, limb tail and hind limb weakness; 3, hind limb paralysis; 4, hind limb and front limb paralysis; 5, moribund and death. All animals were sacrificed at 28 days for further analysis,
Mice were anesthetized by i.p. administration with a ketamine-xylazine solution and they were transcardially perfused with saline 0.9%. The spinal cord was obtained by extrusion with saline. […]
For IHC analysis, free-floating thoracic spinal cord (50 μm) sections were washed with 0.1M PB. […] Samples were photographed, digitalized using a Leica DFC420c camera and analyzed using Image J software. Myelin integrity was analyzed using the Hito CryoMyelmStain™ Kit (Gold phosphate complex Myelin Staining Kit) following manufacturer's recommendation (Hitobiotech Corp., Kingsport, Tenn., USA). […]

Another data set in a line: physchem. As to conditions: pH 7.4. From the text:
Lipophilicity is a key determinant of the PK behavior of drugs. It can influence distribution into tissues, absorption and the binding characteristics of a drug, as well as being an important factor in determining the solubility of a compound. Log D (distribution co-efficient) is used as a measure of lipophilicity.
The solution was transferred to tubes, centrifuged and the supernatant is drawn off the top, leaving any solid compound in the bottom. This supernatant was then syringe filtered through 0.2 μm filters to produce the initial solution. Three vials were prepared containing values. […] The vials were mixed to equilibrium, then centrifuged to ensure the two phases were fully separated before the octanol was removed and the buffer samples analyzed. For the quantitative analysis, the aqueous solutions were analyzed by LC MS/MS. The amount of VCE-004.8 in each vial was quantified against a 6 points standard curve which was produced by serially diluting the initial solution. Log D was calculated using the equation, shown in FIG. 7, wherein ConcINITlAL is a concentration of compound in the initial aqueous solution, ConcFINAL is a concentration of compound in final aqueous phase, Vaq is a volume of aqueous phase, and Voct is a volume of octanol phase.

As for `C=C(C)C1CCC(C)=C[C@H]1C1=C(O)C(=O)C(CCCCC)=C(NCc2ccccc2)C1=O` (stereo partly drawn) [VCE-004.8, (1′R,6′R)-3-(Benzylamine)-6-hydroxy-3′-methyl-4-pentyl-6′-(prop-1-en-2-yl)[1,1′-bi(cyclohexane)]-2′,3,6-triene-2,5-dione], the impurity peak in data set [1] (after 6 hr at reflux in ethyl acetate) was 1.7%; in data set [1] (after 24 hr at reflux in ethyl acetate), 6.2%. Also, the “microglial reactivity and infiltration of inflammatory cells” value in data set [2] (EAE animals, myelin structure preserved) is reported as “significantly reduced”. The “therapeutic effect in EAE model” value in data set [2] (doses of 5 mg/kg, 10 mg/kg, and 20 mg/kg) is reported as “highly significant therapeutic effect”. Also, in “physchem”, the logD – broadly, the decadic logarithm of the distribution of all forms, ionised or not, between an organic phase and buffer at a given pH – is > 5.

The record behind these values is patent US20220184003A1, “Formulations of Cannabidiol Derivatives and Their Use as Modulators of Cannabinoid Receptor Type 2 (CB2)” (EMERALD HEALTH PHARMACEUTICALS INC, priority 2019, published 2022).
